Literature values as cited in publication PMC7559897, “Designed Antimicrobial Peptides Against Trauma-Related Cutaneous Invasive Fungal Wound Infections” (Journal of Fungi, 2020).

What was measured:
[1] = system: S. aureus; details: subinhibitory concentrations, growth at higher concentrations; cited from earlier work
Excerpt: (§1) The rapid destruction of pathogenic cells by dAMPs infers a theoretical reduced likelihood of developing bacterial resistance. However, to confirm this, dAMPs were serially passaged against Candida and against both P. aeruginosa and S. aureus at subinhibitory concentrations to ascertain whether resistance, assessed by growth at higher concentrations, occurs. Resistance was not observed.

[2] = system: P. aeruginosa; details: subinhibitory concentrations, growth at higher concentrations; cited from earlier work
Excerpt: as §1

## CCC[C@@H]1C[C@@H](C(=O)N[C@@H]([C@H]2O[C@H](SC)[C@H](O)[C@@H](O)[C@H]2O)[C@H](C)Cl)N(C)C1 [clindamycin]
[1]
  resistance during serial passaging against S. aureus: strong resistance

## CNC(C)C1CCC(N)C(OC2C(N)CC(N)C(OC3OCC(C)(O)C(NC)C3O)C2O)O1 (centres unmarked) [Gentamicin]
[2]
  resistance during serial passaging against P. aeruginosa: strong resistance
